In patent publication US20040157268A1, “Conformational assays to detect binding to membrane spanning, signal-transducing proteins” (priority 2001, published 2004):

How the values were obtained:
FM-β2AR [1] = biological target: T1, FM-β2AR (Homo sapiens, UniProt P07550); test: Fluorescence intensity of FM-β2AR (fluorescein maleimide at Cys265), time course; details: ligand added to FM-β2AR, in words
FM-β2AR [2] = test: Quenching of FM-β2AR fluorescence (KI, oxyl-NHS, nitroxide fatty acids), Stern-Volmer; assay type: biochemical, human; details: ISO-induced change in fluorescence with quencher vs without; 250 mM KI vs 250 mM KCl; Oxyl-NHS bound to K224 in TM5; ALP reversal as measure; n=3
FM-β2AR [3] = biological target: T1, FM-β2AR; test: Fluorescence lifetime analysis of FM-β2AR (frequency domain); assay type: biochemical; set-up: made in house
Source text: Fluorescence lifetime analysis of fluorescein labeled β2AR. […] The instrument covered a wide frequency range (4-5000 MHz), which allowed detection of lifetimes ranging from several nanoseconds to a few picoseconds. Samples were placed in a 10-mm path-length cuvette. The excitation was provided by the frequency-doubled output of a cavity-dumped pyridine-2 dye laser tuned at 370 nm synchronously pumped by a mode-locked argon ion laser. Sample emission was filtered through Corning 3-72 and 4-96 filters.
The governing equations for the time-resolved intensity decay data were assumed to be a sum of discrete exponentials as in I(t)=IoΣiαie^t/τ^i, where I(t) is the intensity decay, αi is the amplitude (pre-exponential factor) and τi is the fluorescence lifetime of the i-th discrete component; or a sum of Gaussian distribution functions as in the equation I(t)=IoΣiαiτe^t/τ and [formula]
In the frequency domain, the measured quantities at each frequency ω, are the phase shift (Øω) and demodulation factor (mω) of the emitted light versus the reference light.
Fractional intensity, amplitude, and lifetime parameters were recovered by a non-linear least squares procedure using the software developed at the Center for Fluorescence Spectroscopy. The measured data were compared with calculated values (Øcω,mcω) and the goodness of fit was characterized by [formula]
where ν is the number of degrees of freedom and δØ and δm are the uncertainties in the measured phase and modulation values, respectively. The sum extends over all frequencies (ω).

FM-β2AR [4] = biological target: T1, FM-β2AR; test: Quenching of FM-β2AR fluorescence (KI, oxyl-NHS, nitroxide fatty acids), Stern-Volmer; assay type: biochemical; set-up: made in house; details: for quenching constant Ksv (nitroxide fatty acids): total lipid constant with stearic acid, n=3
[5] = Gaussian lifetime distribution, long component
[6] = Gaussian lifetime distribution, short component
[7] = fit to discrete exponential functions

T1 sequence (P07550 whole entry): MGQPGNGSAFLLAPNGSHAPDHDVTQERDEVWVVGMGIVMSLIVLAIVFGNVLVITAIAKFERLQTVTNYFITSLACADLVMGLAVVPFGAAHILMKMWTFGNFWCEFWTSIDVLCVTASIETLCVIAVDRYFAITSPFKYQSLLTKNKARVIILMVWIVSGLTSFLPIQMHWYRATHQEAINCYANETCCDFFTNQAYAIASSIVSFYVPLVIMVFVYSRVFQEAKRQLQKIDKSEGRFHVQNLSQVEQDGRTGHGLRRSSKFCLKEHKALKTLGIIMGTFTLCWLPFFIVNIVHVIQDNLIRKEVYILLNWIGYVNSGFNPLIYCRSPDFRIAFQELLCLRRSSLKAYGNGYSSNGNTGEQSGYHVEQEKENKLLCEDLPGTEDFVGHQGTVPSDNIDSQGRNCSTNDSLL

SMILES: CNC[C@H](O)c1ccc(O)c(O)c1 [epinephrine]
- change in FM-β2AR fluorescence (FM-β2AR [1]): progressively smaller changes

SMILES: [I-].[K+] [KI, potassium iodide]
- % of control ISO response (FM-β2AR [2]): 55.4±8.3%

SMILES: CC(CCc1ccc(O)cc1)NCCc1ccc(O)c(O)c1 (stereo not shown) [DOB, dobutamine]
- change in FM-β2AR fluorescence (FM-β2AR [1]): progressively smaller changes
- FWHMLONG (FM-β2AR [3]; [5]): 0.4±0.4
- τLONG (FM-β2AR [3]; [5]): 4.38±0.01 nsec
- FWHMSHORT (FM-β2AR [3]; [6]): 0.9±0.6
- τSHORT (FM-β2AR [3]; [6]): 1.78±0.01 nsec
- τ1 (nsec) (FM-β2AR [3]; [7]): 4.36 ± 0.01 nsec
- τ2 (nsec) (FM-β2AR [3]; [7]): 1.68 ± 0.3 nsec
- α2 (FM-β2AR [3]; fit to discrete exponential functions, fractional contribution of τ2): 0.07 ± 0.01

SMILES: CCCCCCCCCCCCCC1(CCCC(=O)O)OCC(C)(C)N1[O] (stereo not shown) [5-DOX, 5-doxyl stearate]
- effect on magnitude of the agonist-induced change in fluorescence (FM-β2AR [4]; 100 μM 5-DOX): no significant effect
- quenching of baseline fluorescence (FM-β2AR [4]; 100 μM 5-DOX): 12%
- quenching constant Ksv (nitroxide fatty acids) (FM-β2AR [4]): 1.4 ± 0.2 mM⁻¹

SMILES: CCCCCCCCCCCCCCCC[N+](C)(C)C1CC(C)(C)N([O])C(C)(C)C1.[I-] [CAT-16]
- effect on magnitude of the agonist-induced fluorescence change (FM-β2AR [4]; 50 μM CAT-16): more than two fold
- quenching of baseline fluorescence (FM-β2AR [4]; 50 μM CAT-16): ~12%
- quenching constant Ksv (nitroxide fatty acids) (FM-β2AR [4]): 2.4 ± 0.1 mM⁻¹
